In patent US20100075965A1, “PI3 KINASE INHIBITORS AND METHODS OF THEIR USE” (Novartis AG, priority 2006, published 2010):
Like-named read-outs stand apart in the source and are kept apart here.

Key:
A2780 cells = assay: Viability assay in A2780 (Cell Titer Glo); type: cell-based, human; conditions: Homo sapiens, A2780 cells, read-out: A2780 Cell prolif. EC50
Experimental: Cell viability was assessed with Cell Titer Glo assay, Promega. Cells were seeded in TC treated 96-well plates at a density of 1,000 (A2780 cells) per well in DMEM with 10% FBS, 1% Sodium Pyruvate, and 1% Penicillin Streptomycin for a minimum of 2 hrs prior to addition of compound. Test compounds were serially diluted (3 fold) in DMSO to 500× the final concentration. For each concentration of test compound, 2 μL (500×) aliquots of compound or 100% DMSO (control) were diluted in 500 μL of culture medium to 2× final concentration then diluted 1× on the cells. Cells were incubated for 72 hrs at 37° C., 5% CO2. After which Cell Titer Glo is added to determine viable cells, the assay was performed according to the manufacturer's instruction (Promega Corporation, Madison, Wis. USA). Each experimental condition was performed in duplicate. Raw data was imported in Abase and EC50s calculated with XL-fit data analysis software and are shown in Tables 1 and 2 in the column labeled “A2780 Cell prolif. EC50”.

PI3 K Alpha = PI3 K Alpha (Homo sapiens, UniProt P42336); assay: PI3 kinase phosphorylation assays (homogenous solution phase, one step solid phase, ATP depletion/KinaseGlo); type: biochemical
PI3 K Alpha, sequence (P42336 whole entry): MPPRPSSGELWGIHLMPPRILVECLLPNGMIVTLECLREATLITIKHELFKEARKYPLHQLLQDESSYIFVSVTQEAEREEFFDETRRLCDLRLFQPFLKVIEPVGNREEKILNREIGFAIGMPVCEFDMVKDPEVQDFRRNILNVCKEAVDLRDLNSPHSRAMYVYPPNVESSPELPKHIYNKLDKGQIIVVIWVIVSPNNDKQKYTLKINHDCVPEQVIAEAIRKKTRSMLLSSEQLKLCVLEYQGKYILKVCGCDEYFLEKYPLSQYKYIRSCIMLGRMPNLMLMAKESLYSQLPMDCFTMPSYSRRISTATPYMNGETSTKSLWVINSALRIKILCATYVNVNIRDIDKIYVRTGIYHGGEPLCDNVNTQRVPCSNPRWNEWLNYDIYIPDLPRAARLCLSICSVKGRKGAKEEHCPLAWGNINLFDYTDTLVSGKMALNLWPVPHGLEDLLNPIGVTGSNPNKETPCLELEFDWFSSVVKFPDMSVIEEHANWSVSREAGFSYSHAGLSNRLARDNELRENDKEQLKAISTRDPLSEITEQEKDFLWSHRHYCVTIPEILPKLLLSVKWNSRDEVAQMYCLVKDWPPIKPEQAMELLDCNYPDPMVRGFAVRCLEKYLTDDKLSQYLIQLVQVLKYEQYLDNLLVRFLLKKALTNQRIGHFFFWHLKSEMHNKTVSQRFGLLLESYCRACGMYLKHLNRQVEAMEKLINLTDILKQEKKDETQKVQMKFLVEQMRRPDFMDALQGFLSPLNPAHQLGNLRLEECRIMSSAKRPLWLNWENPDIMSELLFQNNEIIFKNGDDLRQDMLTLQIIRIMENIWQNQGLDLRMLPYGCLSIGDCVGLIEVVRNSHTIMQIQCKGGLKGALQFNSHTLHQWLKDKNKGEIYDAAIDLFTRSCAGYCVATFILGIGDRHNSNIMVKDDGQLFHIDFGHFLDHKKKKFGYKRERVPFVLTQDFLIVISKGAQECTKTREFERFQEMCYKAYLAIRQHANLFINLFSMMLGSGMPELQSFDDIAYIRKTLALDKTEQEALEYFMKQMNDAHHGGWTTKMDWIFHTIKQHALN
PI3 K Alpha, sequence (P27986 whole entry partner): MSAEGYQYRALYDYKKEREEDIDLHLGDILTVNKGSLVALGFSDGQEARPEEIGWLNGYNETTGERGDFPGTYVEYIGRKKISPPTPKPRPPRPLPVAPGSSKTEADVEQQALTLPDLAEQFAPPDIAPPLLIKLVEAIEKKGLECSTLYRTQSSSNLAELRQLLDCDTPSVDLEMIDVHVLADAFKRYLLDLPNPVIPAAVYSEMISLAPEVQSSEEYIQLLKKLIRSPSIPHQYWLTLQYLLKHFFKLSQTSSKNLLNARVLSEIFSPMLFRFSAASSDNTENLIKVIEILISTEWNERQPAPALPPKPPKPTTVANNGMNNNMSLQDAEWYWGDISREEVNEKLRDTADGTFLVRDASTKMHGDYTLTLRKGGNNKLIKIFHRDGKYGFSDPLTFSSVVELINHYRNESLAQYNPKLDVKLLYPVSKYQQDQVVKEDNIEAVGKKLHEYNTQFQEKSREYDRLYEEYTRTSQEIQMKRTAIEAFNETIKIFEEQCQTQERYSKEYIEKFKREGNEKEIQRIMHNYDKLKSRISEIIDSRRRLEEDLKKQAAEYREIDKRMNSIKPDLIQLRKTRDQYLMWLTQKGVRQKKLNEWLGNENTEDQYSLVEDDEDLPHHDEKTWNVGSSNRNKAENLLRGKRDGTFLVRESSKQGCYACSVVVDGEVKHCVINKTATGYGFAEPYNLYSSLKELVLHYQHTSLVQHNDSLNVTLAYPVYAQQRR

SMILES	EC50 (A2780 cells) [µM]	IC50 (PI3 K Alpha; read-out: PI3K Alpha IC50) [nM]	EC50 (A2780 cells; 72 hrs) [µM]	IC50 (PI3 K Alpha; ATP depletion assay, read-out: PI3 K Alpha IC50) [nM]
Nc1ncc(-c2ccc3nc(NC(=O)COCc4ccccc4)cn3n2)cc1C(F)(F)F [Example 217, N-(6-(6-amino-5-(trifluoromethyl)pyridin-3-yl)imidazo[1,2-b]pyridazin-2-yl)-2-(benzyloxy) acetamide]	< 10	< 1000	–	–
Nc1ncc(-c2ccc3nc(NC(=O)C4CNC4)cn3n2)cc1Cl [Example 142, N-(6-(6-amino-5-chloropyridin-3-yl)imidazo[1,2-b]pyridazin-2-yl)azetidine-3-carboxamide]	< 25	< 1000	–	–
CC(=O)Nc1cn2c(C)c(-c3cnc(N)c(OCC(F)(F)F)n3)ccc2n1 [Example 112, N-(6-(5-amino-6-(2,2,2-trifluoroethoxy)pyrazin-2-yl)-5-methylimidazo [1,2-a]pyridin-2-yl)acetamide]	< 10	< 1000	–	–
Nc1ccc(C(=O)Nc2nc3ccc(-c4cnc(N)c(C(F)(F)F)c4)cc3s2)cn1 [Example 2-34, 6-amino-N-(6-(6-amino-5-(trifluoromethyl)pyridin-3-yl)benzo[d]thiazol-2-yl)nicotinamide]	–	–	< 1	< 1000
CC(=O)Nc1cn2nc(-c3cnc(N)c(C(=O)NCCO)c3)ccc2n1 [Example 140, 5-(2-acetamido-imidazo[1,2-b]pyridazin-6-yl)-2-amino-N-(2-hydroxyethyl) nicotinamide]	< 25	< 1000	–	–
CC(=O)Nc1nc2ccc(-c3cnc(N)c(C(F)(F)F)c3)cn2c1C#CCNC(=O)OC(C)(C)C [Example 247, tert-butyl 3-(2-acetamido-6-(6-amino-5-(trifluoromethyl)pyridin-3-yl)imidazo[1,2-a]pyridin-3-yl)prop-2-ynylcarbamate]	< 10	< 1000	–	–
Nc1ncc(-c2ccc3nc(NC(=O)C4CCN4)cn3c2)nc1OCC(F)(F)F (stereo not shown) [Example 229, N-(6-(5-amino-6-(2,2,2-trifluoroethoxy)pyrazin-2-yl)imidazo[1,2-a]pyridin-2-yl)azetidine-2-carboxamide]	< 10	< 1000	–	–
Nc1ncc(-c2ccc3nc(NC(=O)CO[C@@H]4CCNC4)cn3c2)cc1C(F)(F)F [Example 214, (R)-N-(6-(6-amino-5-(trifluoromethyl)pyridin-3-yl)imidazo[1,2-a]pyridin-2-yl)-2-(pyrrolidin-3-yloxy)acetamide]	< 10	< 1000	–	–
CC(C)(C)OC(=O)N1CCC(OCC(=O)Nc2cn3cc(-c4cnc(N)c(C(F)(F)F)c4)ccc3n2)CC1 [Example 251, tert-butyl 4-(2-(6-(6-amino-5-(trifluoromethyl)pyridin-3-yl)imidazo[1,2-a]pyridin-2-ylamino)-2-oxoethoxy) piperidine-1-carboxylate]	< 10	< 1000	–	–
Nc1ncc(-c2ccc3nc(NC(=O)[C@@H]4CCN4)cn3c2)cc1C(F)(F)F [Example 228, (S)-N-(6-(6-amino-5-(trifluoromethyl)pyridin-3-yl)imidazo[1,2-a]pyridin-2-yl)azetidine-2-carboxamide]	< 10	< 1000	–	–
CN(CC(=O)Nc1cn2cc(-c3cnc(N)c(C(F)(F)F)c3)ccc2n1)C(=O)OC(C)(C)C [Example 244, tert-butyl 2-(6-(6-amino-5-(trifluoromethyl)pyridin-3-yl)imidazo[1,2-a]pyridin-2-ylamino)-2-oxoethyl(methyl) carbamate]	< 10	< 1000	–	–
CCN(CC)Cc1cc(-c2ccc3nc(NC(C)=O)cn3c2)cnc1N [Example 181, N-(6-(6-amino-5-((diethylamino)methyl)pyridin-3-yl)imidazo[1,2-a]pyridin-2-yl)acetamide]	< 25	< 1000	–	–
CC(=O)Nc1ccc(-c2c(NC(C)=O)nc3ccc(-c4cnc(N)c(C(F)(F)F)c4)cn23)cc1 [Example 162]	< 25	< 1000	–	–
COc1nc(-c2cc(F)c3nc(NC(C)=O)cn3c2)cnc1N [Example 145, N-(6-(5-amino-6-methoxypyrazin-2-yl)-8-fluoroimidazo [1,2-a]pyridin-2-yl)acetamide]	< 25	< 1000	–	–
